In patent US20260151372A1, “AZOTOMYCIN PRODRUGS WITH PREFERENTIAL TUMOR DELIVERY” (The Johns Hopkins University, priority 2022, published 2026):

How the values were obtained:
Format in all cases: in vitro ADME
[1] = Metabolic stability in CES1-KO mouse liver homogenate; details: tissue homogenate, 10 μM, 37° C.
Method: (§1) In vitro stability studies were done using CES1KO mouse plasma, human plasma, CES1-KO mouse liver, and human liver microsomes as previously described. For tissue homogenate stability studies, washed tissue was diluted 10-fold in 0.1 M potassium phosphate buffer and homogenized using probe sonication. Crude homogenate was then aliquoted to 1 mL, and spiked with 10 mM stock of the analyte in DMSO to achieve a 10 μM final concentration. The plasma stability of the prodrugs was determined by spiking the analyte in 1 mL of plasma. The plasma and tissues were incubated in an orbital shaker at 37° C. Stability in human liver microsomes was assessed at a final prodrug concentration of 1 μM with 0.2 mg/mL protein for microsomes. All the stability studies were conducted at predetermined times (0 and 60 min), where 50 μL aliquots of the mixture in triplicate were removed and the reaction was quenched by addition of 5 times the volume of ice-cold methanol spiked with the internal standard (losartan: 0.5 μM). The samples were vortex-mixed for 30 s and centrifuged at 10,000 g for 10 min at 4° C. An amount of 50 μL of the supernatant was diluted with 50 μL of water and transferred to a 250 μL polypropylene vial sealed with a Teflon cap. Prodrug disappearance was monitored over time using liquid chromatography and mass spectrometry (LC-MS).
(§2) Analyses were performed on a Dionex ultra high-performance LC system coupled with Q Exactive Focus orbitrap mass spectrometer (Thermo Fisher Scientific Inc., Waltham MA). Separation was achieved using Agilent Eclipse Plus column (100×2.1 mm i.d., maintained at 35° C.) packed with a 1.8 μm C18 stationary phase. The mobile phase consisted of 0.1% formic acid in water and 0.1% formic acid in acetonitrile, […] were operated at a flow rate of 0.3 mL/min for 7 min using gradient elution. The mass spectrometer controlled by Xcalibur software 4.0.27.13 (Thermo Scientific) was operated with a HESI ion source in positive ionization mode. Metabolites were identified in the full-scan mode (from m/z 50 to 1600) by comparing […] samples

[2] = Metabolic stability in human liver microsomes; details: 1 μM prodrug, 0.2 mg/mL protein
Method: as §1, §2

[3] = Plasma stability in CES1KO mouse plasma; details: 37° C., 60 min
Method: as §1, §2

[4] = Plasma stability in human plasma; details: 37° C.
Method: as §1, §2

[N-]=[N+]=CC(=O)CC[C@H](NC(=O)[C@H](CCC(=O)C=[N+]=[N-])NC(=O)CC[C@H](N)C(=O)O)C(=O)O [Azotomycin]
Liver Stability (% Remaining at 60 min) CES1^−/− Mouse Liver [1]: 89.7 ± 0.88%
Liver Stability (% Remaining at 60 min) Human Liver Microsomes [2]: 23.7 ± 0.333%
Plasma Stability (% Remaining at 60 min) CES1^−/− Mouse Plasma [3]: 105 ± 7.64%
Plasma Stability (% Remaining at 60 min) Human Plasma [4]: 74.3 ± 1.20%

CC(C)(C)OC(=O)[C@H](CCC(=O)C=[N+]=[N-])NC(=O)[C@H](CCC(=O)C=[N+]=[N-])NC(=O)CC[C@H](N)C(=O)OC(C)(C)C [Prodrug P1, tert-Butyl (S)-2-((S)-2-((S)-4-amino-5-(tert-butoxy)-5-oxopentanamido)-6-diazo-5-oxohexanamido)-6-diazo-5-oxohexanoate]
Liver Stability (% Remaining at 60 min) CES1^−/− Mouse Liver [1]: 87.0 ± 8.51%
Liver Stability (% Remaining at 60 min) Human Liver Microsomes [2]: 105 ± 0.859%
Plasma Stability (% Remaining at 60 min) CES1^−/− Mouse Plasma [3]: 101 ± 3.38%
Plasma Stability (% Remaining at 60 min) Human Plasma [4]: 104 ± 1.00%

CC(=O)N[C@@H](CCC(=O)N[C@@H](CCC(=O)C=[N+]=[N-])C(=O)N[C@@H](CCC(=O)C=[N+]=[N-])C(=O)OC(C)(C)C)C(=O)OC(C)(C)C [Prodrug P2]
Liver Stability (% Remaining at 60 min) CES1^−/− Mouse Liver [1]: 100 ± 1.67%
Liver Stability (% Remaining at 60 min) Human Liver Microsomes [2]: 85.3 ± 7.88%
Plasma Stability (% Remaining at 60 min) CES1^−/− Mouse Plasma [3]: 104 ± 2.31%
Plasma Stability (% Remaining at 60 min) Human Plasma [4]: 110 ± 4.70%

[N-]=[N+]=CC(=O)CC[C@H](NC(=O)[C@H](CCC(=O)C=[N+]=[N-])NC(=O)CC[C@H](N)C(N)=O)C(N)=O [Prodrug P5, (S)-4-Amino-N1-((S)-1-(((S)-1-amino-6-diazo-1,5-dioxohexan-2-yl)amino)-6-diazo-1,5-dioxohexan-2-yl)pentanediamide]
Liver Stability (% Remaining at 60 min) CES1^−/− Mouse Liver [1]: 4.33 ± 0.882%
Liver Stability (% Remaining at 60 min) Human Liver Microsomes [2]: 95.4 ± 0.595%
Plasma Stability (% Remaining at 60 min) CES1^−/− Mouse Plasma [3]: 87.7 ± 8.51%
Plasma Stability (% Remaining at 60 min) Human Plasma [4]: 97.3 ± 2.85%

CC(=O)N[C@@H](CCC(=O)N[C@@H](CCC(=O)C=[N+]=[N-])C(=O)N[C@@H](CCC(=O)C=[N+]=[N-])C(N)=O)C(N)=O [Prodrug P6, (S)-4-Acetamido-N1-((S)-1-(((S)-1-amino-6-diazo-1,5-dioxohexan-2-yl)amino)-6-diazo-1,5-dioxohexan-2-yl)pentanediamide]
Liver Stability (% Remaining at 60 min) CES1^−/− Mouse Liver [1]: 85.0 ± 5.86%
Liver Stability (% Remaining at 60 min) Human Liver Microsomes [2]: 98.5 ± 0.676%
Plasma Stability (% Remaining at 60 min) CES1^−/− Mouse Plasma [3]: 99.0 ± 3.51%
Plasma Stability (% Remaining at 60 min) Human Plasma [4]: 105 ± 1.76%

CN(C)CC(=O)N[C@@H](CCC(=O)N[C@@H](CCC(=O)C=[N+]=[N-])C(=O)N[C@@H](CCC(=O)C=[N+]=[N-])C(N)=O)C(N)=O [Prodrug P7, (S)—N1-((S)-1-(((S)-1-Amino-6-diazo-1,5-dioxohexan-2-yl)amino)-6-diazo-1,5-dioxohexan-2-yl)-4-(2-(dimethylamino)acetamido)pentanediamide]
Liver Stability (% Remaining at 60 min) CES1^−/− Mouse Liver [1]: 109 ± 10.0%
Liver Stability (% Remaining at 60 min) Human Liver Microsomes [2]: 95.3 ± 0.168%
Plasma Stability (% Remaining at 60 min) CES1^−/− Mouse Plasma [3]: 98.0 ± 12.5%
Plasma Stability (% Remaining at 60 min) Human Plasma [4]: 98.7 ± 2.67%

CN(C)CC(=O)N[C@@H](Cc1c[nH]c2ccccc12)C(=O)N[C@@H](CCC(=O)N[C@@H](CCC(=O)C=[N+]=[N-])C(=O)N[C@@H](CCC(=O)C=[N+]=[N-])C(N)=O)C(N)=O [Prodrug P8, (S)—N1-((S)-1-(((S)-1-Amino-6-diazo-1,5-dioxohexan-2-yl)amino)-6-diazo-1,5-dioxohexan-2-yl)-4-((S)-2-(2-(dimethylamino)acetamido)-3-(1H-indol-3-yl)propanamido)pentanediamide]
Liver Stability (% Remaining at 60 min) CES1^−/− Mouse Liver [1]: 49.7 ± 0.333%
Liver Stability (% Remaining at 60 min) Human Liver Microsomes [2]: 95.8 ± 0.141%
Plasma Stability (% Remaining at 60 min) CES1^−/− Mouse Plasma [3]: 99.3 ± 1.45%
Plasma Stability (% Remaining at 60 min) Human Plasma [4]: 109 ± 1.00%
